Test results taken from the supplement of paper PMC10307832.

Legend:
Assay in all cases: relative viability (nuclei count vs DMSO), 5 days (fraction); higher = more cells survive
KN-93 + Pictilisib = compound: CN(C/C=C/C1=CC=C(C=C1)Cl)CC2=CC=CC=C2N(CCO)S(=O)(=O)C3=CC=C(C=C3)OC [KN-93] + CS(=O)(=O)N1CCN(Cc2cc3nc(-c4cccc5[nH]ncc45)nc(N4CCOCC4)c3s2)CC1 [Pictilisib] (partner 1 µM)
Outline: (§1)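 Medians of duplicate plates are given as relative viability. That measure is the nuclei count in treated wells divided by the count in vehicle wells. Counts were taken on 4× images of lung cancer cell lines in 1536-well plates, 5 days after pin-tool dosing the day after seeding with one drug alone or a fixed anchor-drug dose plus five library-drug doses (not always all listed) in √10 steps.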

KN-93 + Lapatinib = compound: CN(C/C=C/C1=CC=C(C=C1)Cl)CC2=CC=CC=C2N(CCO)S(=O)(=O)C3=CC=C(C=C3)OC [KN-93] + CS(=O)(=O)CCNCc1ccc(-c2ccc3ncnc(Nc4ccc(OCc5cccc(F)c5)c(Cl)c4)c3c2)o1 [Lapatinib] (partner 2 µM)
Outline: as §1

KN-93 + Foretinib = compound: CN(C/C=C/C1=CC=C(C=C1)Cl)CC2=CC=CC=C2N(CCO)S(=O)(=O)C3=CC=C(C=C3)OC [KN-93] + COc1cc2c(Oc3ccc(NC(=O)C4(C(=O)Nc5ccc(F)cc5)CC4)cc3F)ccnc2cc1OCCCN1CCOCC1 [Foretinib] (partner 0.25 µM)
Outline: as §1

KN-93 + Bortezomib = compound: CN(C/C=C/C1=CC=C(C=C1)Cl)CC2=CC=CC=C2N(CCO)S(=O)(=O)C3=CC=C(C=C3)OC [KN-93] + CC(C)C[C@H](NC(=O)[C@H](Cc1ccccc1)NC(=O)c1cnccn1)B(O)O [Bortezomib] (partner 0.002 µM)
Outline: as §1

KN-93 + Linsitinib = compound: CN(C/C=C/C1=CC=C(C=C1)Cl)CC2=CC=CC=C2N(CCO)S(=O)(=O)C3=CC=C(C=C3)OC [KN-93] + C[C@]1(O)C[C@@H](c2nc(-c3ccc4ccc(-c5ccccc5)nc4c3)c3c(N)nccn32)C1 [Linsitinib] (partner 1 µM)
Outline: as §1

KN-93 + Olaparib = compound: CN(C/C=C/C1=CC=C(C=C1)Cl)CC2=CC=CC=C2N(CCO)S(=O)(=O)C3=CC=C(C=C3)OC [KN-93] + O=C(c1cc(Cc2n[nH]c(=O)c3ccccc23)ccc1F)N1CCN(C(=O)C2CC2)CC1 [Olaparib] (partner 8 µM)
Outline: as §1

KN-93 + Navitoclax = compound: CN(C/C=C/C1=CC=C(C=C1)Cl)CC2=CC=CC=C2N(CCO)S(=O)(=O)C3=CC=C(C=C3)OC [KN-93] + CC1(C)CCC(c2ccc(Cl)cc2)=C(CN2CCN(c3ccc(C(=O)NS(=O)(=O)c4ccc(N[C@H](CCN5CCOCC5)CSc5ccccc5)c(S(=O)(=O)C(F)(F)F)c4)cc3)CC2)C1 [Navitoclax] (partner 0.5 µM)
Outline: as §1

KN-93 + Alpelisib = compound: CN(C/C=C/C1=CC=C(C=C1)Cl)CC2=CC=CC=C2N(CCO)S(=O)(=O)C3=CC=C(C=C3)OC [KN-93] + Cc1nc(NC(=O)N2CCC[C@H]2C(N)=O)sc1-c1ccnc(C(C)(C)C(F)(F)F)c1 [Alpelisib] (partner 2 µM)
Outline: as §1

KN-93 + Crizotinib = compound: CN(C/C=C/C1=CC=C(C=C1)Cl)CC2=CC=CC=C2N(CCO)S(=O)(=O)C3=CC=C(C=C3)OC [KN-93] + C[C@@H](Oc1cc(-c2cnn(C3CCNCC3)c2)cnc1N)c1c(Cl)ccc(F)c1Cl [Crizotinib] (partner 1 µM)
Outline: as §1

KN-93 = compound: CN(C/C=C/C1=CC=C(C=C1)Cl)CC2=CC=CC=C2N(CCO)S(=O)(=O)C3=CC=C(C=C3)OC [KN-93]
Outline: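 Lung cancer cell lines were seeded into 1536-well plates, kept overnight at 37 °C and pinned with five library-drug doses (not always all listed) spaced by √10. After 5 days, nuclei were Hoechst-stained, imaged at 4× and counted with MetaXpress. Viability is treated-well nuclei over vehicle-well nuclei, taken as a median across plates. Plates needed control CV below 25% and at least one doubling.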

KN-93 + Luminespib = compound: CN(C/C=C/C1=CC=C(C=C1)Cl)CC2=CC=CC=C2N(CCO)S(=O)(=O)C3=CC=C(C=C3)OC [KN-93] + CCNC(=O)c1noc(-c2cc(C(C)C)c(O)cc2O)c1-c1ccc(CN2CCOCC2)cc1 [Luminespib] (partner 0.01 µM)
Outline: as §1

KN-93 + OSI-027 = compound: CN(C/C=C/C1=CC=C(C=C1)Cl)CC2=CC=CC=C2N(CCO)S(=O)(=O)C3=CC=C(C=C3)OC [KN-93] + COc1cccc2cc(-c3nc([C@H]4CC[C@H](C(=O)O)CC4)n4ncnc(N)c34)[nH]c12 [OSI-027] (partner 0.5 µM)
Outline: as §1

KN-93 + Dasatinib = compound: CN(C/C=C/C1=CC=C(C=C1)Cl)CC2=CC=CC=C2N(CCO)S(=O)(=O)C3=CC=C(C=C3)OC [KN-93] + Cc1nc(Nc2ncc(C(=O)Nc3c(C)cccc3Cl)s2)cc(N2CCN(CCO)CC2)n1 [Dasatinib] (partner 0.075 µM)
Outline: as §1

KN-93 + Phenformin = compound: CN(C/C=C/C1=CC=C(C=C1)Cl)CC2=CC=CC=C2N(CCO)S(=O)(=O)C3=CC=C(C=C3)OC [KN-93] + N=C(N)NC(=N)NCCc1ccccc1 [Phenformin] (partner 250 µM)
Outline: as §1

KN-93 + Tozasertib = compound: CN(C/C=C/C1=CC=C(C=C1)Cl)CC2=CC=CC=C2N(CCO)S(=O)(=O)C3=CC=C(C=C3)OC [KN-93] + Cc1cc(Nc2cc(N3CCN(C)CC3)nc(Sc3ccc(NC(=O)C4CC4)cc3)n2)n[nH]1 [Tozasertib] (partner 0.1 µM)
Outline: as §1

Work on NCI-H1299 yielded a relative viability (KN-93 + Pictilisib; first compound 0.253 µM) of 1.03, a relative viability (KN-93 + Pictilisib; first compound 2.53 µM) of 0.656 and a relative viability (KN-93 + Pictilisib; first compound 8 µM) of 0.267. It also gave a relative viability (KN-93 + Lapatinib; first compound 0.08 µM) of 0.992, a relative viability (KN-93 + Lapatinib; first compound 0.253 µM) of 1.04 and a relative viability (KN-93 + Lapatinib; first compound 2.53 µM) of 0.952. For the same cell line, the relative viability (KN-93 + Lapatinib; first compound 8 µM) was 0.708, the relative viability (KN-93 + Foretinib; first compound 0.08 µM) was 1.12 and the relative viability (KN-93 + Foretinib; first compound 0.253 µM) was 1.13. For the same cell line, the relative viability (KN-93 + Foretinib; first compound 2.53 µM) was 1.14, the relative viability (KN-93 + Foretinib; first compound 8 µM) was 0.904 and the relative viability (KN-93 + Bortezomib; first compound 0.08 µM) was 0.969. It also gave a relative viability (KN-93 + Bortezomib; first compound 0.253 µM) of 1.01, a relative viability (KN-93 + Bortezomib; first compound 2.53 µM) of 1.05 and a relative viability (KN-93 + Bortezomib; first compound 8 µM) of 0.969. For the same cell line, the relative viability (KN-93 + Linsitinib; first compound 0.08 µM) was 0.959, the relative viability (KN-93 + Linsitinib; first compound 0.253 µM) was 1.22 and the relative viability (KN-93 + Linsitinib; first compound 2.53 µM) was 1.02. For the same cell line, the relative viability (KN-93 + Linsitinib; first compound 8 µM) was 0.861, the relative viability (KN-93 + Olaparib; first compound 0.08 µM) was 0.941 and the relative viability (KN-93 + Olaparib; first compound 0.253 µM) was 1.06. For the same cell line, the relative viability (KN-93 + Olaparib; first compound 2.53 µM) was 1, the relative viability (KN-93 + Olaparib; first compound 8 µM) was 0.594 and the relative viability (KN-93 + Navitoclax; first compound 0.08 µM) was 1.07. For the same cell line, the relative viability (KN-93 + Navitoclax; first compound 0.253 µM) was 1.04, the relative viability (KN-93 + Navitoclax; first compound 2.53 µM) was 1.11 and the relative viability (KN-93 + Navitoclax; first compound 8 µM) was 1.02. The relative viability (KN-93 + Alpelisib; first compound 0.08 µM) was 0.951, the relative viability (KN-93 + Alpelisib; first compound 0.253 µM) was 1.15 and the relative viability (KN-93 + Alpelisib; first compound 2.53 µM) was 1.09. For the same cell line, the relative viability (KN-93 + Alpelisib; first compound 8 µM) was 1.07, the relative viability (KN-93 + Crizotinib; first compound 0.08 µM) was 0.885 and the relative viability (KN-93 + Crizotinib; first compound 0.253 µM) was 1.14. For the same cell line, the relative viability (KN-93 + Crizotinib; first compound 2.53 µM) was 0.891, the relative viability (KN-93 + Crizotinib; first compound 8 µM) was 0.514 and the relative viability (KN-93; 0.08 µM) was 1.01. The relative viability (KN-93; 0.253 µM) was 1.1, the relative viability (KN-93; 2.53 µM) was 1.04 and the relative viability (KN-93; 8 µM) was 0.796.
NCI-H1623 was tested, and the relative viability (KN-93 + Luminespib; first compound 0.08 µM) was 0.44, the relative viability (KN-93 + Luminespib; first compound 0.253 µM) was 0.414 and the relative viability (KN-93 + Luminespib; first compound 2.53 µM) was 0.654. It also gave a relative viability (KN-93 + Luminespib; first compound 8 µM) of 0.457, a relative viability (KN-93 + OSI-027; first compound 0.08 µM) of 0.418 and a relative viability (KN-93 + OSI-027; first compound 0.253 µM) of 0.36. For the same cell line, the relative viability (KN-93 + OSI-027; first compound 2.53 µM) was 0.393, the relative viability (KN-93 + OSI-027; first compound 8 µM) was 0.416 and the relative viability (KN-93 + Dasatinib; first compound 0.08 µM) was 0.647. It also gave a relative viability (KN-93 + Dasatinib; first compound 0.253 µM) of 0.525, a relative viability (KN-93 + Dasatinib; first compound 2.53 µM) of 0.536 and a relative viability (KN-93 + Dasatinib; first compound 8 µM) of 0.393. For the same cell line, the relative viability (KN-93 + Foretinib; first compound 0.08 µM) was 0.861, the relative viability (KN-93 + Foretinib; first compound 0.253 µM) was 0.796 and the relative viability (KN-93 + Foretinib; first compound 2.53 µM) was 0.994. The relative viability (KN-93 + Foretinib; first compound 8 µM) was 0.726, the relative viability (KN-93 + Phenformin; first compound 0.08 µM) was 0.61 and the relative viability (KN-93 + Phenformin; first compound 0.253 µM) was 0.592. For the same cell line, the relative viability (KN-93 + Phenformin; first compound 2.53 µM) was 0.672, the relative viability (KN-93 + Phenformin; first compound 8 µM) was 0.453 and the relative viability (KN-93 + Tozasertib; first compound 0.08 µM) was 0.445. For the same cell line, the relative viability (KN-93 + Tozasertib; first compound 0.253 µM) was 0.41, the relative viability (KN-93 + Tozasertib; first compound 2.53 µM) was 0.41 and the relative viability (KN-93 + Tozasertib; first compound 8 µM) was 0.439. The relative viability (KN-93; 0.08 µM) was 0.95, the relative viability (KN-93; 0.253 µM) was 0.984 and the relative viability (KN-93; 2.53 µM) was 0.956. The relative viability (KN-93; 8 µM) was 0.958.
